pIC50: −log10 of the molar value. Activity calls are given as the source filed them. The rule behind the calls is not given here.

The test system of one assay is CWR22R. Nature of the assay: Cytotoxicity against human 22Rv1 cells assessed as reduction in cell viability incubated for 72 hrs by MTT assay. Format: functional, cell-based. Background: Formazan colour is commonly taken as a measure of viable cells.
A further assay deals with DU-145. Nature of the assay: Cytotoxicity against human DU-145 cells assessed as reduction in cell viability incubated for 72 hrs by MTT assay. Format: functional, cell-based.
For assay [1], the target named is T1, Androgen receptor (Homo sapiens) (UniProt P10275).
T1 sequence (whole entry): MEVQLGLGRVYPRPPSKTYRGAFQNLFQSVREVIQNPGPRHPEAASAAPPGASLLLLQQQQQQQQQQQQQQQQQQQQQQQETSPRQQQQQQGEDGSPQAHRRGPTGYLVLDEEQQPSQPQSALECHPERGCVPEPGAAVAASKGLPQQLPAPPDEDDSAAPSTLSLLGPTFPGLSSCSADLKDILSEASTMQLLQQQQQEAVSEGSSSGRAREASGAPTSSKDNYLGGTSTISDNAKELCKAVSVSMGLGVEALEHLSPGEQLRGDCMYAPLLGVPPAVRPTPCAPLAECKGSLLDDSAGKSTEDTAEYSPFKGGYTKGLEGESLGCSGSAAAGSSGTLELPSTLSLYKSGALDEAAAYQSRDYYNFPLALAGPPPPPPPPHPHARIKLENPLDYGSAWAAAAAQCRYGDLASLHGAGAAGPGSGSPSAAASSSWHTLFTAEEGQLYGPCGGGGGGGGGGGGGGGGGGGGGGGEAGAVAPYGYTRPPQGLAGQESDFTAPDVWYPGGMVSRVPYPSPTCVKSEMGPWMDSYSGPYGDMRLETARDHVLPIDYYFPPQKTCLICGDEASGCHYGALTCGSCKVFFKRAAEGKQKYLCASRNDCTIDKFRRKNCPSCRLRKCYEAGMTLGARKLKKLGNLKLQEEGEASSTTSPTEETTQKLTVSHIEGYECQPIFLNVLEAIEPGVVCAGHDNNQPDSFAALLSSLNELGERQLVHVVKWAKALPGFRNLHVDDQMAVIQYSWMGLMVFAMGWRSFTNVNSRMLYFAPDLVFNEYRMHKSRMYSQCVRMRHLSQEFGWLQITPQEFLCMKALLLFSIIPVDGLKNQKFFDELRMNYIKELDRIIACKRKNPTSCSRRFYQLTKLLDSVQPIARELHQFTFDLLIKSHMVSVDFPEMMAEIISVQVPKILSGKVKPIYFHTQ
Nature of the assay: Antagonist activity at androgen receptor in human LNCaP cells assessed as inhibition of DHT-induced AR nuclear translocation at 10 uM after 12 hrs by immunofluorescence assay. Format: cell-based. The conditions noted are these: filed as antagonist.

The next assay has as its system A549. Description: Cytotoxicity against human A549 cells assessed as reduction in cell viability at 50 uM incubated for 72 hrs by MTT assay. Format: functional, cell-based.
A further assay relates to HeLa. Nature of the assay: Cytotoxicity against human HeLa cells assessed as reduction in cell viability at 50 uM incubated for 72 hrs by MTT assay. Format: functional, cell-based.
The next assay addresses T2, Glucocorticoid receptor (Homo sapiens, UniProt P04150).
T2 sequence (P04150 whole entry): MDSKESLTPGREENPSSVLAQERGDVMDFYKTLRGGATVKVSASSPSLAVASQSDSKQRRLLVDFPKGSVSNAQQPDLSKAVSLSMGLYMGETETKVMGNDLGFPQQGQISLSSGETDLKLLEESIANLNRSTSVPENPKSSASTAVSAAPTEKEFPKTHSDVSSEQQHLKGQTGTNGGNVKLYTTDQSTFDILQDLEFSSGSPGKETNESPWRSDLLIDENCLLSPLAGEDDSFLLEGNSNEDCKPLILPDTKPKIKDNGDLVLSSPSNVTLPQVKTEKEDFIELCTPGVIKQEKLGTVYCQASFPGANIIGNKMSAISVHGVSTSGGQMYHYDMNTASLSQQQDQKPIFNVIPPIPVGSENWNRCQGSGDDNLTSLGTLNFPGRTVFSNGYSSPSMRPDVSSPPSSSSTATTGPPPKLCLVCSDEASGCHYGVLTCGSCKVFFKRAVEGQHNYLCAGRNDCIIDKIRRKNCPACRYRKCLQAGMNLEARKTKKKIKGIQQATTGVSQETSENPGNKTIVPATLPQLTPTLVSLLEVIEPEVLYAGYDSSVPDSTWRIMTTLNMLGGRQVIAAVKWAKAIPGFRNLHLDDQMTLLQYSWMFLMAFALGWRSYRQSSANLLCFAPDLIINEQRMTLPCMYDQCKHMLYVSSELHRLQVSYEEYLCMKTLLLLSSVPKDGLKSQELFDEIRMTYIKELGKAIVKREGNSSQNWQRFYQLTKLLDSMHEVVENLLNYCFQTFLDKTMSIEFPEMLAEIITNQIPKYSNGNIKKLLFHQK
Description: Antagonist activity at glucocorticoid receptor in human HeLa cells assessed as reduction in dexamethasone-induced luciferase activity by dual-Glo luciferase assay. Format: cell-based.

In assay [2] the target is T3, Mineralocorticoid receptor (Homo sapiens) (UniProt P08235).
T3 sequence (whole entry): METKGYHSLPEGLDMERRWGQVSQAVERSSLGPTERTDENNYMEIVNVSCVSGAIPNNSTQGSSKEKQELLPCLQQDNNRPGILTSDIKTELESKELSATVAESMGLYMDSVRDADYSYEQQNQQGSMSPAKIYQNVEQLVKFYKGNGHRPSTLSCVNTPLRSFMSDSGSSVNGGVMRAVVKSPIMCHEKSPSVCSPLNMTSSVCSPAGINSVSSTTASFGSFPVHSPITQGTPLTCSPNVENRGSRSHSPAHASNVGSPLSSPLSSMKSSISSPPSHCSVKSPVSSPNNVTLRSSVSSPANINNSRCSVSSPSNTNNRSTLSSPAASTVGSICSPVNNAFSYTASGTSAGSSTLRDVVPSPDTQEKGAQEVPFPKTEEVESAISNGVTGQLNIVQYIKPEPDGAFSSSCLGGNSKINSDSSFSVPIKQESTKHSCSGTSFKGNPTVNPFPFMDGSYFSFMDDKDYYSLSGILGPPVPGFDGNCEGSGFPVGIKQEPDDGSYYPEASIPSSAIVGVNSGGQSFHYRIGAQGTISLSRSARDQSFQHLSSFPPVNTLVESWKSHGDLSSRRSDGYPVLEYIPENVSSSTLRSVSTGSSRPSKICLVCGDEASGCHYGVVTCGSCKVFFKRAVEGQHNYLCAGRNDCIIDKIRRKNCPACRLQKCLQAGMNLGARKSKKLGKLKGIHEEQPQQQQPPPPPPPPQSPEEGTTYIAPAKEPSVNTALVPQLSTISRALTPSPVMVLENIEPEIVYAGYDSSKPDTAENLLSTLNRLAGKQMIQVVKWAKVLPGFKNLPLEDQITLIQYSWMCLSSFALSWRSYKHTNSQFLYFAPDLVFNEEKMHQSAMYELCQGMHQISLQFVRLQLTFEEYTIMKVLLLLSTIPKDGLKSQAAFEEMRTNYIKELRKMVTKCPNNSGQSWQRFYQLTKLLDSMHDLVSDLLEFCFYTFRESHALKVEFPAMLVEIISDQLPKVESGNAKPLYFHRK
Nature of the assay: Antagonist activity at mineralocorticoid receptor in human PC-3 cells assessed as reduction in aldosterone-induced luciferase activity at 10 uM by dual-Glo luciferase assay. Format: cell-based.

For assay [3], the target named is T4, Glucocorticoid receptor (Homo sapiens) (UniProt P04150).
T4 sequence (whole entry): T2 sequence (P04150 whole entry)
Description: Agonist activity at glucocorticoid receptor in human HeLa cells by dual-Glo luciferase assay. Format: cell-based.

What is called pIC50 is the negative decadic logarithm of the IC50, by convention in mol/L. Take `O=c1cc(C(F)(F)F)c2ccc(OCc3ccc(Br)cc3)cc2o1`: the outcome (in the assay on CWR22R; with DU-145; in assay [1]; in the assay on A549; in the assay on HeLa) was Active. Also, the pIC50 at Glucocorticoid receptor was under 5.00. Also, the outcome in assay [2] and in assay [3] was inactive.

(Values after ChEMBL document CHEMBL5055679, “Discovery of a Novel Androgen Receptor Antagonist Manifesting Evidence to Disrupt the Dimerization of the Ligand-Binding Domain via Attenuating the Hydrogen-Bonding Network Between the Two Monomers” (J Med Chem, 2021).)
